Source: patent EP3050567B1, “COMPOUND FOR ACTIVATING AMPK AND USES THEREOF” (Energenesis Biomedical Co., Ltd., priority 2013, dated 2015)

Key:
[1] = test system: 6-mm full-thickness excisional skin wounds; experiment: Wound healing and scar formation, excisional skin wounds in mice; format: in vivo, C57BL/6J mice; settings: 14 days
Procedure: C57BL/6J mice were maintained at 22°C under a 12-h light/dark cycle. The experiments were performed with 12-week-old mice. After anesthetized by an intraperitoneal injection of ketamine (500 mg/kg) and xylazine (100 mg/kg), 6-mm full-thickness excisional skin wounds was made on the backs of mice using 6-mm skin biopsy punches. Immediately after wounding, 10-1200 µM of adenine or saline alone was applied to the wound bed. The skin wounds were then covered by semipermeable transparent dressing and fixed to the skin. The mice were treated with adenine or vehicle for 14 days and then sacrificed. The scar formation is assessed by Masson's trichrome staining (the tissue was fixed by 4% paraformaldehyde).

[2] = test system: AMPK; experiment: AMPK activation assay (phospho-AMPK Thr172 western blot) in 3T3 cells; format: cell-based, mouse; settings: 30 min
Procedure: (§1) Effects of adenine on AMPK activation were evaluated based on the phosphorylation of AMPK protein upon adenine treatment. Mouse muscle cell C2C12, mouse fibroblast 3T3, human liver carcinoma cell Hep G2, human breast adenocarcinoma cell line MCF7 and human colon adenocarcinoma grade II cell line HT29, human umbilical vein endothelial cell HUVEC, Human acute monocytic leukemiacell THP1, human macrophage cell U937, murine microglia cell BV-2, and mouse neuroblastoma cell Neuro2A and dermal papilla cell were cultured in high-glucose Dulbecco's modified Eagle's medium (DMEM) containing 10% fetal bovine serum (FBS), 4 mM L-glutamine, 2 mM sodium pyruvate and 1% penicillin/streptomycin (Invitrogen GibcoBRL, Carlsbad, Calif., USA) at 37°C, under 5% CO2. Cells were plated at 3 × 10^5 per well in 6-well plates. Twenty-four hours after plating, adenine was added to the culture media as indicated. After 30 min cells were lysed and subject to western blot analysis. Equal amount of protein from each sample was separated by SDS-PAGE and then electroblotted on to PVDF membranes. Membranes were blocked with 3% BSA in PBS for 60 min and incubated with an anti-phospho-AMPK (Thr172) antibody (1:2,000, Cell signaling) or an anti-AMPK antibody (1:2,000, Cell signaling) at 4°C for 16 h followed by the corresponding secondary antibody for 1 h at room temperature (RT). Immunoreactive bands were detected by enhanced chemiluminescence and recorded using Kodak film. The detected signals were scanned and then quantified using TotalLab Quant software (TotalLab).

[3] = test system: AMPK; experiment: AMPK activation assay (phospho-AMPK Thr172 western blot) in U937 cells; format: cell-based, human; settings: 30 min
Procedure: as §1

[4] = test system: LC3; experiment: Autophagy assay (LC3-II/LC3-I western blot) in Neuro2A cells; format: cell-based, mouse; settings: 24 h
Procedure: Effects of adenine on Amyloid β peptide were analyzed in mouse neuroblastoma cell Neuro2A. Neuro2A cells were cultured in high-glucose Dulbecco's modified Eagle's medium (DMEM) containing 10% fetal bovine serum (FBS), 4 mM L-glutamine, 2 mM sodium pyruvate and 1% penicillin/streptomycin (Invitrogen GibcoBRL, Carlsbad, Calif., USA) at 37°C under 5% CO2. Cells were plated at 3 × 10^5 per well (6-well plate). 24 h after plating, cells were transfected with human APP695 and treated with indicated concentration of adenine for 24 h followed by cell lysis and western blot analysis. Equal amounts of protein were separated by SDS-PAGE and then electroblotted on to PVDF membranes. Membranes were blocked with 3% BSA in PBS for 60 min and incubated with an anti-Aβ antibody (1:1,000, abcam), an anti-LC3 antibody (1:1,000, Cell signaling), and an anti-actin antibody (1:5,000, Cell signaling) at 4°C for 16 h followed by the corresponding secondary antibody for 1 h at room temperature (RT). Immunoreactive bands were detected by enhanced chemiluminescence and recorded using Kodakfilm. The detected signals were scanned and then quantified by using TotalLab Quant software (TotalLab).

[5] = test system: high-fat diet-fed mice; experiment: Anti-diabetic effects in high-fat diet-fed mice; format: in vivo, C57BL/6J mice; settings: adenine 0.1 to 50 mg/kg IP twice a day for 6 days, compared to control group
Procedure: To further evaluate the effects of adenine on the modulation of plasma glucose level, the high-fat diet-fed mice were served as a type 2 diabetes animal model. C57BL/6J mice were maintained at 22°C under a 12-h light/dark cycle and fed either a high fat diet (60% kcal% fat) or a normal diet ad libitum. Intraperitoneal injections of adenine (0.1 to 50 mg/kg) or vehicle were given to the high-fat diet-fed mice from the age of 24 weeks and glucose readings were measure at 1 and 3 hr. IP administration of adenine or vehicle only to the high-fat diet-fed mice continued twice a day for 6 days. On day 6, plasma was collected 1 hr after the last dosing for analyzing, evaluating, measuring plasma glucose and triglycerides.

[6] = test system: AMPK; experiment: AMPK activation assay (phospho-AMPK Thr172 western blot) in THP1 cells; format: cell-based, Human; settings: 30 min
Procedure: as §1

[7] = test system: MCF7; experiment: Cancer cell growth inhibition assay, MCF7; format: cell-based; settings: Homo sapiens; MCF7 cell proliferation, 72 h, cell counting
Procedure: Human liver hepatocellular carcinoma cell line Hep G2, human breast adenocarcinoma cell line MCF7 and human colon adenocarcinoma grade II cell line HT29 were used to evaluate the effects of adenine on cell proliferation. Those cell lines were obtained from ATCC and were cultured in high-glucose Dulbecco's modified Eagle's medium (DMEM) containing 10% fetal bovine serum (FBS), 4 mM L-glutamine, 2 mM sodium pyruvate and 1% penicillin/streptomycin (Invitrogen GibcoBRL, Carlsbad, Calif., USA) at 37°C under 5% CO2. Cells were plated at 1 × 10^5 per well (6-well plate). Twenty-four hours after plating, cells were treated with indicated concentration of adenine for 72 h and then followed by cell counting. Cells were detached using trypsin-EDTA solution and stained with trypan blue. The living cells were counted using hemocytometer.

Which extent of closure ([1]; topical 10-1200 µM adenine on wound bed, dose-dependent, vs control mice) does the source give for `Nc1ncnc2nc[nH]c12` [Adenine, adenine] here?
The extent of closure was “significantly greater”.

And the scar width ([1]; topical 10-1200 µM adenine, histological examination, vs vehicle treated wounds)?
The scar width was “significantly decreased”.

What about the “AMPK activation (fold to control)” value ([2]; adenine 1 microM) of the same compound?
Its value is 1.1 fold to control.

What about the “AMPK activation (fold to control)” value ([2]; adenine 10 microM) of the same compound?
The value was 1.5 fold to control.

What about the “AMPK activation (fold to control)” value ([2]; adenine 100 microM) of the same compound?
The value was 2.9 fold to control.

What about the “AMPK activation (fold to control)” value ([2]; adenine 200 microM) of the same compound?
Its value is 4.0 fold to control.

And the “AMPK activation (fold to control)” value ([2]; adenine 600 microM)?
The value was 4.2 fold to control.

What about the “AMPK activation (fold to control)” value ([3]; adenine 1 microM) of the same compound?
The value was 1.1 fold to control.

And the “AMPK activation (fold to control)” value ([3]; adenine 10 microM)?
Its value is 1.3 fold to control.

And the “AMPK activation (fold to control)” value ([3]; adenine 100 microM)?
The value was 2.9 fold to control.

What about the “AMPK activation (fold to control)” value ([3]; adenine 200 microM) of the same compound?
Its value is 3.7 fold to control.

What about the “AMPK activation (fold to control)” value ([3]; adenine 600 microM) of the same compound?
The value was 4.0 fold to control.

And the “LC3-II/LC3-I ratio (relative to control)” value ([4]; adenine 10 microM)?
Its value is 1.2 ± 0.1 relative to control.

What about the “LC3-II/LC3-I ratio (relative to control)” value ([4]; adenine 20 microM) of the same compound?
Its value is 1.8 ± 0.3 relative to control.

And the “LC3-II/LC3-I ratio (relative to control)” value ([4]; adenine 30 microM)?
Its value is 2.8 ± 0.2 relative to control.

And the “LC3-II/LC3-I ratio (relative to control)” value ([4]; adenine 40 microM)?
The value was 2.9 ± 0.2 relative to control.

What about the “LC3-II/LC3-I ratio (relative to control)” value ([4]; adenine 50 microM) of the same compound?
Its value is 3.2 ± 0.3 relative to control.

What about the lower body weight [5] of the same compound?
The lower body weight was “more than 15%”.

What about the lower plasma glucose [5] of the same compound?
The lower plasma glucose was greater than 30%.

And the lower plasma triacylglycerides [5]?
The lower plasma triacylglycerides was “more than 35%”.

And the lower plasma glucose ([5]; listed as adenine)?
Its lower plasma glucose is “more than 30%”.

What about the “AMPK activation (fold to control)” value ([6]; adenine 1 microM) of the same compound?
The value was 1.2 fold to control.

And the “AMPK activation (fold to control)” value ([6]; adenine 10 microM)?
Its value is 2.2 fold to control.

And the “AMPK activation (fold to control)” value ([6]; adenine 100 microM)?
Its value is 3.7 fold to control.

What about the “AMPK activation (fold to control)” value ([6]; adenine 200 microM) of the same compound?
The value was 4.3 fold to control.

And the “AMPK activation (fold to control)” value ([6]; adenine 600 microM)?
The value was 4.2 fold to control.

And the IC50 [7]?
The IC50 was 538 µM.
